{"source": "paper PMC11928863", "about": "(Computational and Structural Biotechnology Journal, 2025)", "biological_target": "T1, CD2068 (Clostridioides difficile, UniProt Q188D7)", "T1 sequence (Q188D7 1-541)": "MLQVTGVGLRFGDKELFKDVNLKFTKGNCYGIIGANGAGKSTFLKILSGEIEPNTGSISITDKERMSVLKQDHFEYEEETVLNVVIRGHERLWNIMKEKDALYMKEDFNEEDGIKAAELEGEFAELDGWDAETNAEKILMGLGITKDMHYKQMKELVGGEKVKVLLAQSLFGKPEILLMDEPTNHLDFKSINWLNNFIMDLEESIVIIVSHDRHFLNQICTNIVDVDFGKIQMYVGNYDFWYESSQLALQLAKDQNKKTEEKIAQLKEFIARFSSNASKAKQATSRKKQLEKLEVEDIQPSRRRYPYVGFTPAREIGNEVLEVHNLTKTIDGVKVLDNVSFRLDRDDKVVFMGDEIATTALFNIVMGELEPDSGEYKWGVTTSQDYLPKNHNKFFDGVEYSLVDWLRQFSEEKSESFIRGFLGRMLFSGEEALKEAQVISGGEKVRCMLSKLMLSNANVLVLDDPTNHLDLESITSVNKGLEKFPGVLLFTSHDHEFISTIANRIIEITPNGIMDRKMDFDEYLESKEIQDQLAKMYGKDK", "experiment": "malachite green ATPase assay, purified CD2068 with […] ATP", "assay_type": "biochemical"}
{"smiles": "Nc1ncnc2c1ncn2[C@@H]1O[C@H](COP(=O)(O)OP(=O)(O)OP(=O)(O)O)[C@@H](O)[C@H]1O", "note": "[ATP]", "values": [{"measurement": "malachite green ATPase assay, purified CD2068 with 1 mM ATP", "value": 52.52, "unit": "nmol/min/mg"}]}
